How the values were obtained:
Assay in all cases: relative viability (nuclei count vs DMSO), 5 days (fraction); higher = more cells survive
NCI-H1355 = tested on: NCI-H1355
In short: (§1)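 Lung cancer cell lines, seeded in 1536-well plates, were treated the following day by pin tool with a single drug or with five library-drug doses (not always all listed) in √10 steps on top of a fixed anchor-drug dose. Cells were fixed and nuclei stained in one step after 5 days, and nuclei were counted. Relative viability is the nuclei count for treated wells divided by that for vehicle wells, reported as medians of duplicate plates.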

A-427 = tested on: A-427
In short: as §1

NCI-H2228 = tested on: NCI-H2228
In short: as §1

PC-3 [JPC-3] = tested on: PC-3 [JPC-3]
In short: as §1

LCLC-97TM1 = tested on: LCLC-97TM1
In short: as §1

LK-2 = tested on: LK-2
In short: as §1

NCI-H1915 = tested on: NCI-H1915
In short: as §1

NCI-H838 = tested on: NCI-H838
In short: as §1

NCI-H1666 = tested on: NCI-H1666
In short: as §1

PC-14 = tested on: PC-14
In short: as §1

NCI-H2087 = tested on: NCI-H2087
In short: as §1

NCI-H358 = tested on: NCI-H358
In short: as §1

NCI-H1792 = tested on: NCI-H1792
In short: as §1

ABC-1 = tested on: ABC-1
In short: as §1

UMC-11 = tested on: UMC-11
In short: as §1

NCI-H661 = tested on: NCI-H661
In short: as §1

NCI-H322M = tested on: NCI-H322M
In short: as §1

CAL-12T = tested on: CAL-12T
In short: as §1

SK-MES-1 = tested on: SK-MES-1
In short: as §1

NCI-H1651 = tested on: NCI-H1651
In short: as §1

NCI-H1395 = tested on: NCI-H1395
In short: as §1

NCI-H2085 = tested on: NCI-H2085
In short: as §1

H3255 = tested on: H3255
In short: as §1

Molecule `Cc1cnc(-c2cnc(NCCNc3ccc(C#N)cn3)nc2-c2ccc(Cl)cc2Cl)[nH]1` + CS(=O)(=O)CCNCc1ccc(-c2ccc3ncnc(Nc4ccc(OCc5cccc(F)c5)c(Cl)c4)c3c2)o1 [Lapatinib] (partner 2 µM) has a relative viability (NCI-H1355; first compound 0.08 µM) of 1.06, a relative viability (NCI-H1355; first compound 0.253 µM) of 0.8 and a relative viability (NCI-H1355; first compound 0.8 µM) of 0.95. For the same molecule, the relative viability (NCI-H1355; first compound 2.53 µM) was 0.909, the relative viability (A-427; first compound 0.08 µM) was 1.03 and the relative viability (A-427; first compound 0.253 µM) was 0.942. The relative viability (A-427; first compound 0.8 µM) was 1.09, the relative viability (A-427; first compound 2.53 µM) was 1.03 and the relative viability (NCI-H2228; first compound 0.08 µM) was 1.23. It also gave a relative viability (NCI-H2228; first compound 0.253 µM) of 0.904, a relative viability (NCI-H2228; first compound 0.8 µM) of 0.911 and a relative viability (NCI-H2228; first compound 2.53 µM) of 0.781. For the same molecule, the relative viability (PC-3 [JPC-3]; first compound 0.08 µM) was 0.498, the relative viability (PC-3 [JPC-3]; first compound 0.253 µM) was 0.449 and the relative viability (PC-3 [JPC-3]; first compound 0.8 µM) was 0.419. The relative viability (PC-3 [JPC-3]; first compound 2.53 µM) was 0.474, the relative viability (LCLC-97TM1; first compound 0.08 µM) was 1.1 and the relative viability (LCLC-97TM1; first compound 0.253 µM) was 0.883. The relative viability (LCLC-97TM1; first compound 0.8 µM) was 1.07, the relative viability (LCLC-97TM1; first compound 2.53 µM) was 0.745 and the relative viability (LK-2; first compound 0.08 µM) was 1.1. For the same molecule, the relative viability (LK-2; first compound 0.253 µM) was 0.885, the relative viability (LK-2; first compound 0.8 µM) was 0.928 and the relative viability (LK-2; first compound 2.53 µM) was 0.897. For the same molecule, the relative viability (NCI-H1915; first compound 0.08 µM) was 0.985, the relative viability (NCI-H1915; first compound 0.8 µM) was 0.947 and the relative viability (NCI-H1915; first compound 2.53 µM) was 1.04. The relative viability (NCI-H838; first compound 0.08 µM) was 1.12, the relative viability (NCI-H838; first compound 0.253 µM) was 0.858 and the relative viability (NCI-H838; first compound 0.8 µM) was 1.11. For the same molecule, the relative viability (NCI-H838; first compound 2.53 µM) was 1.27, the relative viability (NCI-H1666; first compound 0.08 µM) was 0.768 and the relative viability (NCI-H1666; first compound 0.253 µM) was 0.554. For the same molecule, the relative viability (NCI-H1666; first compound 0.8 µM) was 0.595, the relative viability (NCI-H1666; first compound 2.53 µM) was 0.62 and the relative viability (PC-14; first compound 0.08 µM) was 0.352. It also gave a relative viability (PC-14; first compound 0.253 µM) of 0.29, a relative viability (PC-14; first compound 0.8 µM) of 0.277 and a relative viability (PC-14; first compound 2.53 µM) of 0.38. For the same molecule, the relative viability (NCI-H2087; first compound 0.08 µM) was 1.16, the relative viability (NCI-H2087; first compound 0.253 µM) was 0.729 and the relative viability (NCI-H2087; first compound 0.8 µM) was 1.39. The relative viability (NCI-H2087; first compound 2.53 µM) was 0.979, the relative viability (NCI-H358; first compound 0.08 µM) was 0.43 and the relative viability (NCI-H358; first compound 0.253 µM) was 0.49. For the same molecule, the relative viability (NCI-H358; first compound 0.8 µM) was 0.412, the relative viability (NCI-H358; first compound 2.53 µM) was 0.401 and the relative viability (NCI-H1792; first compound 0.08 µM) was 0.927. The relative viability (NCI-H1792; first compound 0.253 µM) was 0.756, the relative viability (NCI-H1792; first compound 0.8 µM) was 0.862 and the relative viability (NCI-H1792; first compound 2.53 µM) was 0.866. It also gave a relative viability (ABC-1; first compound 0.08 µM) of 1.22, a relative viability (ABC-1; first compound 0.253 µM) of 0.969 and a relative viability (ABC-1; first compound 0.8 µM) of 1.09. For the same molecule, the relative viability (ABC-1; first compound 2.53 µM) was 1.11, the relative viability (UMC-11; first compound 0.08 µM) was 1.22 and the relative viability (UMC-11; first compound 0.253 µM) was 0.7. The relative viability (UMC-11; first compound 0.8 µM) was 0.697, the relative viability (UMC-11; first compound 2.53 µM) was 1.09 and the relative viability (NCI-H661; first compound 0.08 µM) was 0.523. For the same molecule, the relative viability (NCI-H661; first compound 0.253 µM) was 0.452, the relative viability (NCI-H661; first compound 0.8 µM) was 0.449 and the relative viability (NCI-H661; first compound 2.53 µM) was 0.54. It also gave a relative viability (NCI-H322M; first compound 0.08 µM) of 0.575, a relative viability (NCI-H322M; first compound 0.253 µM) of 0.565 and a relative viability (NCI-H322M; first compound 0.8 µM) of 0.594. For the same molecule, the relative viability (NCI-H322M; first compound 2.53 µM) was 0.555, the relative viability (CAL-12T; first compound 0.253 µM) was 0.64 and the relative viability (CAL-12T; first compound 2.53 µM) was 0.627. For the same molecule, the relative viability (SK-MES-1; first compound 0.08 µM) was 0.514, the relative viability (SK-MES-1; first compound 0.253 µM) was 0.474 and the relative viability (SK-MES-1; first compound 0.8 µM) was 0.439. The relative viability (SK-MES-1; first compound 2.53 µM) was 0.559, the relative viability (NCI-H1651; first compound 0.08 µM) was 0.937 and the relative viability (NCI-H1651; first compound 0.253 µM) was 0.712. It also gave a relative viability (NCI-H1651; first compound 0.8 µM) of 0.862, a relative viability (NCI-H1651; first compound 2.53 µM) of 0.917 and a relative viability (NCI-H1395; first compound 0.08 µM) of 1.04. For the same molecule, the relative viability (NCI-H1395; first compound 0.253 µM) was 0.776, the relative viability (NCI-H1395; first compound 0.8 µM) was 1.07 and the relative viability (NCI-H1395; first compound 2.53 µM) was 0.94. It also gave a relative viability (NCI-H2085; first compound 0.08 µM) of 0.837, a relative viability (NCI-H2085; first compound 0.253 µM) of 0.8 and a relative viability (NCI-H2085; first compound 0.8 µM) of 0.786. For the same molecule, the relative viability (NCI-H2085; first compound 2.53 µM) was 0.848, the relative viability (H3255; first compound 0.08 µM) was 0.28 and the relative viability (H3255; first compound 0.253 µM) was 0.249. It also gave a relative viability (H3255; first compound 0.8 µM) of 0.219 and a relative viability (H3255; first compound 2.53 µM) of 0.244.
